In patent publication US20250382344A1, “Soluble GLP1/GIP/NPY2 Receptor Triple Agonists” (Boehringer Ingelheim International GmH, priority 2024, published 2025):
Like-named read-outs stand apart in the source and are kept apart here.

Columns and labels:
[1] = target: T1, hGLP1R (Homo sapiens, UniProt P43220); assay: hGLP1R CreLuc assay in 0.5% and 100% plasma (HEK-293 CRE-luciferase reporter cells); assay type: cell-based; conditions: HEK-293 reporter cells
T1 construct: expressed in transfected cells; host or cells: HEK-293 CRE-luciferase reporter cells
T1 sequence (P43220 24-463): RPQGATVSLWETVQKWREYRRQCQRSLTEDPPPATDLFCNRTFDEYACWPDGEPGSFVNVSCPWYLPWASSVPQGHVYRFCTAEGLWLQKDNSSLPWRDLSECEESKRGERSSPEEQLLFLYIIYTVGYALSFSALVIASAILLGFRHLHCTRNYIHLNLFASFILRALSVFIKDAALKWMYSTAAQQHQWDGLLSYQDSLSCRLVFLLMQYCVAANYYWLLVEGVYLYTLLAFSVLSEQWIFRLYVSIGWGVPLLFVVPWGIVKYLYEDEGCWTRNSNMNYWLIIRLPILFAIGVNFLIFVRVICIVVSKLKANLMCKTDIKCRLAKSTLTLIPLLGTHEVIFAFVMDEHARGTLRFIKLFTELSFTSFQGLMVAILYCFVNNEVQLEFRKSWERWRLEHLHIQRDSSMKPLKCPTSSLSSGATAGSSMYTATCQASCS

[2] = Solubility in 0.1 M phosphate buffer at pH 7; assay type: physicochemical; conditions: 0.1 M phosphate buffer at pH 7, 10 mg/mL final peptide concentration, shaking 2 hours at room temperature, peptides as TFA-salts, measured sample pH 6.5-7.0
[3] = target: T2, hGIPR (Homo sapiens, UniProt P48546); assay: hGIPR CreLuc assay in 0.5% and 100% plasma (CHO CRE-luciferase reporter cells); assay type: cell-based; conditions: 0.5% human plasma, read-out: hGIPR 0.5% hP
T2 construct: expressed in transfected cells; host or cells: CHO CRE-luciferase reporter cells
T2 sequence (P48546 22-466): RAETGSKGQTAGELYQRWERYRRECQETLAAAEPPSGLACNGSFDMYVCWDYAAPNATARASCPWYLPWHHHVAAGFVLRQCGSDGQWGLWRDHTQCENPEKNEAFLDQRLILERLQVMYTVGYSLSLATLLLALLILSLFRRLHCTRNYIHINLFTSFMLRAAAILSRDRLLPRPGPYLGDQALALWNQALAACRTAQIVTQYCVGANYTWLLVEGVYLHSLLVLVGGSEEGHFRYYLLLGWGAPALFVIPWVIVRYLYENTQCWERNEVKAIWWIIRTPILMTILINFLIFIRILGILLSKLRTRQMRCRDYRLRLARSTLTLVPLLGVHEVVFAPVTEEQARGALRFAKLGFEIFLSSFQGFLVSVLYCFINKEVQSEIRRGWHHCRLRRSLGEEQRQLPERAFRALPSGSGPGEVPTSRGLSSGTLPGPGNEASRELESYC

[4] = 0.5% human plasma, read-out: hGLP1R 0.5% hP

SMILES | EC50 [1, 4] [nM] | EC50 ([1]; 100% human plasma, read-out: hGLP1R 100% hP) [nM] | solubility at 2 h [2] [µg/mL] | EC50 [3] [nM] | solubility ([2]; read-out: Solubility) [µg/mL]
CC[C@H](C)[C@H](NC(=O)[C@H](CC(C)C)NC(=O)[C@H](Cc1c[nH]cn1)NC(=O)[C@H](CCCNC(=N)N)NC(=O)[C@@H](NC(=O)[C@H](Cc1ccccc1)NC(=O)[C@H](CCC(=O)O)NC(=O)C(C)(C)NC(=O)[C@H](CCC(N)=O)NC(=O)[C@H](C)NC(=O)[C@H](CCC(N)=O)NC(=O)[C@H](CCCCN)NC(=O)[C@H](CCC(=O)O)NC(=O)[C@H](CC(C)C)NC(=O)C(C)(C)NC(=O)[C@@H](NC(=O)[C@H](CO)NC(=O)[C@H](Cc1ccc(O)cc1)NC(=O)[C@H](CC(=O)O)NC(=O)[C@H](CO)NC(=O)[C@@H](NC(=O)[C@H](Cc1ccccc1)NC(=O)[C@@H](NC(=O)CNC(=O)[C@H](CCC(=O)O)NC(=O)C(C)(C)NC(=O)[C@@H](N)Cc1ccc(O)cc1)[C@@H](C)O)[C@@H](C)O)[C@@H](C)CC)C(C)C)C(=O)N[C@@H](CC(N)=O)C(=O)N[C@@H](CCCCNC(=O)[C@@H](N)CCCCNC(=O)CC[C@H](NC(=O)CC[C@H](NC(=O)CC[C@H](NC(=O)CC[C@H](NC(=O)CC[C@H](NC(=O)CC[C@H](NC(=O)CCCCCCCCCCCCCCCCC(=O)O)C(=O)O)C(=O)O)C(=O)O)C(=O)O)C(=O)O)C(=O)O)C(=O)NC(C)(C)C(=O)N[C@H](C(=O)N[C@@H](CCCNC(=N)N)C(=O)N[C@@H](CCC(N)=O)C(=O)N[C@@H](CCCNC(=N)N)C(=O)N[C@@H](Cc1ccc(O)cc1)C(N)=O)[C@@H](C)O [Compound 145, Y-Aib-E-G-T-F-T-S-D-Y-S-I-Aib-L-E-K-Q-A-Q-Aib-E-F-V-R-H-L-I-N-K(1,3)-Aib-T-R-Q-R-Y-NH2.C18DA-gGlu-gGlu-gGlu-gGlu-gGlu-gGlu-eLys(1,2)] | 0.5 | 1.8 | 5000 | 0.3 | –
CC[C@H](C)[C@H](NC(=O)[C@H](CC(C)C)NC(=O)[C@H](Cc1c[nH]cn1)NC(=O)[C@H](CCCNC(=N)N)NC(=O)[C@@H](NC(=O)[C@H](Cc1ccccc1)NC(=O)[C@H](CCC(=O)O)NC(=O)C(C)(C)NC(=O)[C@H](CCC(N)=O)NC(=O)[C@H](C)NC(=O)[C@H](CCC(N)=O)NC(=O)[C@H](CCCCN)NC(=O)[C@H](CCC(=O)O)NC(=O)[C@H](CC(C)C)NC(=O)C(C)(C)NC(=O)[C@@H](NC(=O)[C@H](CO)NC(=O)[C@H](Cc1ccc(O)cc1)NC(=O)[C@H](CC(=O)O)NC(=O)[C@H](CO)NC(=O)[C@@H](NC(=O)[C@H](Cc1ccccc1)NC(=O)[C@@H](NC(=O)CNC(=O)[C@H](CCC(=O)O)NC(=O)C(C)(C)NC(=O)[C@@H](N)Cc1ccc(O)cc1)[C@@H](C)O)[C@@H](C)O)[C@@H](C)CC)C(C)C)C(=O)N[C@@H](CC(N)=O)C(=O)N[C@@H](CCCCNC(=O)COCCOCCNC(=O)COCCOCCNC(=O)CC[C@H](NC(=O)CC[C@H](NC(=O)CC[C@H](NC(=O)CC[C@H](NC(=O)CC[C@H](NC(=O)CCCCCCCCCCCCCCCCC(=O)O)C(=O)O)C(=O)O)C(=O)O)C(=O)O)C(=O)O)C(=O)NC(C)(C)C(=O)N[C@H](C(=O)N[C@@H](CCCNC(=N)N)C(=O)N[C@@H](CCC(N)=O)C(=O)N[C@@H](CCCNC(=N)N)C(=O)N[C@@H](Cc1ccc(O)cc1)C(N)=O)[C@@H](C)O [Compound 98, Y-Aib-E-G-T-F-T-S-D-Y-S-I-Aib-L-E-K-Q-A-Q-Aib-E-F-V-R-H-L-I-N-K(1,3)-Aib-T-R-Q-R-Y-NH2.C18DA-gGlu-gGlu-gGlu-gGlu-gGlu-OEG-OEG(1,2)] | 0.7 | – | 4900 | 0.5 | –
CC[C@H](C)[C@H](NC(=O)[C@H](CC(C)C)NC(=O)[C@H](Cc1c[nH]cn1)NC(=O)[C@H](CCCNC(=N)N)NC(=O)[C@@H](NC(=O)[C@H](Cc1ccccc1)NC(=O)[C@H](C)NC(=O)C(C)(C)NC(=O)[C@H](CCC(N)=O)NC(=O)[C@H](C)NC(=O)[C@H](CCC(N)=O)NC(=O)[C@H](CCCCN)NC(=O)[C@H](CCC(=O)O)NC(=O)[C@H](CC(C)C)NC(=O)C(C)(C)NC(=O)[C@@H](NC(=O)[C@H](CO)NC(=O)[C@H](Cc1ccc(O)cc1)NC(=O)[C@H](CC(=O)O)NC(=O)[C@H](CO)NC(=O)[C@@H](NC(=O)[C@H](Cc1ccccc1)NC(=O)[C@@H](NC(=O)CNC(=O)[C@H](CCC(=O)O)NC(=O)C(C)(C)NC(=O)[C@@H](N)Cc1ccc(O)cc1)[C@@H](C)O)[C@@H](C)O)[C@@H](C)CC)C(C)C)C(=O)N[C@@H](CC(N)=O)C(=O)N[C@@H](CCCCNC(=O)COCCOCCNC(=O)CC[C@H](NC(=O)CC[C@H](NC(=O)CC[C@H](NC(=O)CC[C@H](NC(=O)CC[C@H](NC(=O)CCCCCCCCCCCCCCCCC(=O)O)C(=O)O)C(=O)O)C(=O)O)C(=O)O)C(=O)O)C(=O)N[C@@H](CC(C)C)C(=O)N[C@H](C(=O)N[C@@H](CCCNC(=N)N)C(=O)N[C@@H](CCC(N)=O)C(=O)N[C@@H](CCCNC(=N)N)C(=O)N[C@@H](Cc1ccc(O)cc1)C(N)=O)[C@@H](C)O [Compound 7, Y-Aib-E-G-T-F-T-S-D-Y-S-I-Aib-L-E-K-Q-A-Q-Aib-A-F-V-R-H-L-I-N-K(1,3)-L-T-R-Q-R-Y-NH2.C18DA-gGlu-gGlu-gGlu-gGlu-gGlu-OEG(1,2)] | 0.7 | – | 4500 | 0.4 | –
CC[C@H](C)[C@H](NC(=O)[C@H](CC(C)C)NC(=O)[C@H](Cc1c[nH]cn1)NC(=O)[C@H](CCCNC(=N)N)NC(=O)[C@@H](NC(=O)[C@H](Cc1ccccc1)NC(=O)[C@H](C)NC(=O)C(C)(C)NC(=O)[C@H](CCC(N)=O)NC(=O)[C@H](C)NC(=O)[C@H](CCC(N)=O)NC(=O)[C@H](CCC(N)=O)NC(=O)[C@H](CCC(=O)O)NC(=O)[C@H](CC(C)C)NC(=O)C(C)(C)NC(=O)[C@@H](NC(=O)[C@H](CO)NC(=O)[C@H](Cc1ccc(O)cc1)NC(=O)[C@H](CC(=O)O)NC(=O)[C@H](CO)NC(=O)[C@@H](NC(=O)[C@H](Cc1ccccc1)NC(=O)[C@@H](NC(=O)CNC(=O)[C@H](CCC(=O)O)NC(=O)C(C)(C)NC(=O)[C@@H](N)Cc1ccc(O)cc1)[C@@H](C)O)[C@@H](C)O)[C@@H](C)CC)C(C)C)C(=O)N[C@@H](CC(N)=O)C(=O)N[C@@H](CCCCNC(=O)[C@@H](N)CCCCNC(=O)CC[C@H](NC(=O)CC[C@H](NC(=O)CC[C@H](NC(=O)CC[C@H](NC(=O)CC[C@H](NC(=O)CC[C@H](NC(=O)CCCCCCCCCCCCCCCCC(=O)O)C(=O)O)C(=O)O)C(=O)O)C(=O)O)C(=O)O)C(=O)O)C(=O)NC(C)(C)C(=O)N[C@H](C(=O)N[C@@H](CCCNC(=N)N)C(=O)N[C@@H](CCC(N)=O)C(=O)N[C@@H](CCCNC(=N)N)C(=O)N[C@@H](Cc1ccc(O)cc1)C(N)=O)[C@@H](C)O [Compound 23, Y-Aib-E-G-T-F-T-S-D-Y-S-I-Aib-L-E-Q-Q-A-Q-Aib-A-F-V-R-H-L-I-N-K(1,3)-Aib-T-R-Q-R-Y-NH2.C18DA-gGlu-gGlu-gGlu-gGlu-gGlu-gGlu-eLys(1,2)] | 0.5 | – | 9400 | 0.2 | –
CC[C@H](C)[C@H](NC(=O)[C@H](CC(C)C)NC(=O)[C@H](Cc1c[nH]cn1)NC(=O)[C@H](CCCNC(=N)N)NC(=O)[C@@H](NC(=O)[C@H](Cc1ccccc1)NC(=O)[C@H](C)NC(=O)C(C)(C)NC(=O)[C@H](CCC(N)=O)NC(=O)[C@H](C)NC(=O)[C@H](CCC(N)=O)NC(=O)[C@H](CCCCN)NC(=O)[C@H](CCC(=O)O)NC(=O)[C@H](CC(C)C)NC(=O)C(C)(C)NC(=O)[C@@H](NC(=O)[C@H](CO)NC(=O)[C@H](Cc1ccc(O)cc1)NC(=O)[C@H](CC(=O)O)NC(=O)[C@H](CO)NC(=O)[C@@H](NC(=O)[C@H](Cc1ccccc1)NC(=O)[C@@H](NC(=O)CNC(=O)[C@H](CCC(=O)O)NC(=O)C(C)(C)NC(=O)[C@@H](N)Cc1ccc(O)cc1)[C@@H](C)O)[C@@H](C)O)[C@@H](C)CC)C(C)C)C(=O)N[C@@H](CC(N)=O)C(=O)N[C@@H](CCCCNC(=O)[C@@H](N)CCCCNC(=O)CC[C@H](NC(=O)CC[C@H](NC(=O)CC[C@H](NC(=O)CC[C@H](NC(=O)CC[C@H](NC(=O)CCCCCCCCCCCCCCCCC(=O)O)C(=O)O)C(=O)O)C(=O)O)C(=O)O)C(=O)O)C(=O)NC(C)(C)C(=O)N[C@H](C(=O)N[C@@H](CCCNC(=N)N)C(=O)N[C@@H](CCC(N)=O)C(=O)N[C@@H](CCCNC(=N)N)C(=O)N[C@@H](Cc1ccc(O)cc1)C(N)=O)[C@@H](C)O [Compound 141, Y-Aib-E-G-T-F-T-S-D-Y-S-I-Aib-L-E-K-Q-A-Q-Aib-A-F-V-R-H-L-I-N-K(1,3)-Aib-T-R-Q-R-Y-NH2.C18DA-gGlu-gGlu-gGlu-gGlu-gGlu-eLys(1,2)] | 0.8 | – | – | 0.1 | 1100
